The source of these data is patent US6600091B1, “Enzymes responsible for the metabolism of zeatin” (The State of Oregon acting by and through the State Board …, priority 1998, dated 2003).

Structures are written as SMILES.

Test [1] has as its target T1, Recombinant Protein Encoded by the ORF of Zeatin O-xylosyltranferase (Phaseolus vulgaris, UniProt P56725).
T1 construct: the ORF of the gene was excised from the pGem-T vector (Promega) using the restriction enzymes Not1 and Sal1; made in house; host or cells: E. coli BL21(DE3) pLysS
T1 sequence (P56725 1-454): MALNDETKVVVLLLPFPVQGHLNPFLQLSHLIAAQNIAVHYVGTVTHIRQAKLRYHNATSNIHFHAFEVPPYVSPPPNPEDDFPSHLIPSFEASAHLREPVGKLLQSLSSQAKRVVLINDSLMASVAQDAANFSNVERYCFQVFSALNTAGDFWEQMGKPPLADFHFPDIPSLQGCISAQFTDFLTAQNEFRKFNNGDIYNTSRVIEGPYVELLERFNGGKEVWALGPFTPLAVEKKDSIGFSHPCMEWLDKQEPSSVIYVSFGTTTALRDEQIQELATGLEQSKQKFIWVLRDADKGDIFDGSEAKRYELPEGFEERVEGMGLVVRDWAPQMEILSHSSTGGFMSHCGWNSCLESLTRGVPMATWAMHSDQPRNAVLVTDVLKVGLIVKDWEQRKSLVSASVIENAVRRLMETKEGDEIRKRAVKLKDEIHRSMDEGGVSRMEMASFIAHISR
Description: Cytokinin conversion assay with recombinant protein encoded by the ORF of zeatin O-xylosyltransferase (radio-labeled cytokinin + glycosyl donor, HPLC). Particulars: for Product (%) / Product CPM / Substrate Left (%) / Substrate Left CPM: 125 μl protein from culture supernatant, 4 hrs. It counts as biochemical, Phaseolous vulgaris. From the text:
Isolation of recombinant zeatin O-xylosyltransferase proteins. Zeatin O-xylosyltransferase protein was purified using the same techniques as described above. Briefly, the coding sequences were ligated into an IPTG inducible plasmid which was transformed into Epicurian Coli BL21(DE3) pLysS Competent cells (Stratagene, LaJolla, Calif.). IPTG was then used to induce protein. Cells were subsequently lysed and the protein was separated out through the use of ion exchange chromatography.
(§1) Assay for cytokinin conversion activity and analysis of reaction products. […] Briefly, ^14C-labeled cytokinins (specific activity of 24 mCi/mmol), glycosyl donor (3 mM of UDPG or UDPX), MgCl2 (0.05M) and ATP (0.5 mM) in 1 mM Tris, pH 8.0 were incubated with a specified amount of the recombinant protein at 27° C. […] The supernatant was concentrated to 100 μl in vacuo (Speed Vac Concentrator, Savant) and analyzed by HPLC using a reversed phase C18column.
(§2) The aqueous buffer consisted of 0.2M acetic acid adjusted to pH 3.5 with TEA. Samples were eluted with a linear gradient of methanol (5-50% over 90 minutes) in TEA buffer. The flow rate was 1 mL/min. and 0.5 mL fractions were collected. […] Radioactivity in these fractions was determined in Ready-Gel scintillation fluid (Beckman) with a Beckman LS 7000 scintillation counter.
Isolation and authentication of zeatin O-xylosyltransferase cDNA clones. To assess the enzyme activity of the protein encoded by zeatin O-xylosyltransferase, the ORF of the gene was excised from the pGem-T vector (Promega) using the restriction enzymes Not1 and Sal1. The resulting fragment was then ligated into the Not1/Sal1 site of the pZipLox plasmid.

Test [2] has as its target T2, Recombinant Zeatin O-glucosyltransferase (Phaseolus lunatus, UniProt Q9ZSK5).
T2 construct: the polypeptide encoded by the ORF plus the 5′ untranslated region and the α-peptide from the cloning vector; alpha-peptide encoded by the cloning vector (33 amino acids, pZL1/ZipLox); made in house; host or cells: E. coli BL21(DE3) pLysS
T2 sequence (Q9ZSK5 1-459): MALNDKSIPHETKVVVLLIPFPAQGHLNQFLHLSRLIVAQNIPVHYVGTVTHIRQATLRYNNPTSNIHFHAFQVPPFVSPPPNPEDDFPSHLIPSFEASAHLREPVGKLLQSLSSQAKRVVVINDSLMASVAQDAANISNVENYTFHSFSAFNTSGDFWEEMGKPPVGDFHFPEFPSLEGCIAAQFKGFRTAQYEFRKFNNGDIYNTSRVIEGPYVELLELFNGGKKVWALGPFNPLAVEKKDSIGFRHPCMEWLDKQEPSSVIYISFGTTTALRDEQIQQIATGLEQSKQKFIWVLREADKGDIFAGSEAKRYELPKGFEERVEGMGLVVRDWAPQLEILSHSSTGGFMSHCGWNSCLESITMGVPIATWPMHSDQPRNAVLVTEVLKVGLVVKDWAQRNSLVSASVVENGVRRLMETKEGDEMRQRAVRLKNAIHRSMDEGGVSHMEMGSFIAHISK
Kind of test: Cytokinin conversion assay with recombinant zeatin O-glucosyltransferase (14C-cytokinin + glycosyl donor, products separated by HPLC). Format: biochemical, Phaseolous lunatus. On the procedure: Isolation of recombinant zeatin O-glucosyltransferase proteins. To obtain recombinant proteins, purified plasmids were transformed into Epicurian Coli BL21(DE3) pLysS Competent cells (Stratagene, LaJolla, Calif.) following the recommended protocol. Colonies were selected on AMP-LB plates. An individual colony was grown overnight in SOC-AMP media and 0.5 ml of the culture was used to inoculate 50 mls of SOC-AMP media. […] After 4 hours cells were collected and frozen at −80° C. overnight. Cells were lysed the next day by thawing and resuspending in 0.5 ml of 0.2 M Tris pH 7.5 containing 1 mg/ml of lysozyme. DNAase (1 μg/10 μl sample) was added after a 10-min. cycle of freeze-thaw at −80° C. Soluble proteins were collected after centrifugation. Recombinant proteins were further purified on a DEAE anion exchange column using the Bio-Rad Biologic liquid chromatography system.
as §1, §2

[3] abbreviates: glycosyl donor UDPG, B: DEAE-purified proteins (4 μg), approx. 0.5 nmole 14C-cytokinin.
Setting [4] is: glycosyl donor UDPG, A: 200 μl supernatant from lysed cells, approx. 1 nmole 14C-labeled zeatin, 2 hr.
The mark [5] stands for this setting: glycosyl donor UDPX, A: 200 μl supernatant from lysed cells, approx. 1 nmole 14C-labeled zeatin, 2 hr.

Turning to `CC(CO)CCNc1ncnc2nc[nH]c12` (stereo not drawn) [DHZ, dihydrozeatin], in test [1] (glycosyl donor UDPX), the “Product (%)” value was determined as 78%, the “Product CPM” value was 33237 CPM, the “Substrate Left (%)” value is on record as 22% and the “Substrate Left CPM” value is given as 9244 CPM. For the same compound, in test [2] (DEAE-column purified recombinant protein), the “Formation of O-glucosyldihydrozeatin (in words)” value is given as “trace”. In test [2] (setting [3]), the “Product (%)” value is recorded as 1%, the “Product CPM” value is recorded as 329 CPM, the “Substrate Left (%)” value was 99% and the “Substrate Left CPM” value turned out to be 24178 CPM.
On to `C/C(=C\CNc1ncnc2c1ncn2[C@@H]1O[C@H](CO)[C@@H](O)[C@H]1O)CO` [RZ, ribosylzeatin], for which, in test [1] (glycosyl donor UDPX), the “Substrate Left (%)” value was determined as 100% and the “Substrate Left CPM” value came to 39238 CPM.
For the compound `C/C(=C\CNc1ncnc2[nH]cnc12)CO` [Z, trans-zeatin], the “Conversion of zeatin (in words)” value in test [1] (UDPG as the sugar donor) was “no detectable conversion”. Besides, the “Substrate Left (%)” value is on record as 100% in test [1] (glycosyl donor UDPG); 18% in test [1] (glycosyl donor UDPX); 0 (0%) in test [2] (setting [4]); 86% in test [2] (setting [3]); 82% in test [2] (setting [5]). Moreover, the “Substrate Left CPM” value is listed as 41679 CPM in test [1] (glycosyl donor UDPG); 7768 CPM in test [1] (glycosyl donor UDPX); 0 (0%) CPM in test [2] (setting [4]); 23115 CPM in test [2] (setting [3]); 23078 CPM in test [2] (setting [5]). The “Product (%)” value is on record as 82% in test [1] (glycosyl donor UDPX), 100% in test [2] (setting [4]), 14% in test [2] (setting [3]) and 18% in test [2] (setting [5]). The “Product CPM” value turned out to be 35838 CPM in test [1] (glycosyl donor UDPX), 39715 CPM in test [2] (setting [4]), 3731 CPM in test [2] (setting [3]) and 4956 CPM in test [2] (setting [5]). Also, the “Conversion to O-glucosylzeatin (in words)” value in test [2] (glycosyl donor UDPG, supernatant with recombinant protein, listed as 14C-zeatin) is “efficiently converted”.
For `C/C(=C/CNc1ncnc2nc[nH]c12)CO` [cis-Z, Cis-zeatin], in test [1] (glycosyl donor UDPX), the “Substrate Left (%)” value is reported as 100% and the “Substrate Left CPM” value is 29460 CPM.
